# Laboratory results published in BindingDB's records for patent US20240101544 (2024).
# Key:
# [1] = target: Glutaminyl-peptide cyclotransferase-like protein (Homo sapiens, UniProt Q9NXS2); test: QPCTL Enzymatic Activity Assay
# Experimental: QPCTL activity was measured in a coupled-enzyme assay using the QPCTL substrate, glutamine-7-amido-4-methylcoumarin (H-Gln-AMC, Bachem), which is converted to pyroglutamyl-AMC by QPCTL. Pyroglutamyl-AMC is then converted to the fluorescent molecule, AMC, by incubation with the human enzyme pyroglutamyl peptidase-1. […] Final concentrations of DMSO and test compounds were 2% and 30-100 μM, respectively. Following the incubation, H-Gln-AMC substrate was diluted in assay buffer and added to each well for a final concentration of 10 μM. The reaction was incubated for 60 min at 37° C., before stopping it by boiling at 100° C. for 5 minutes and cooling the plate at 4° C. for 3 minutes. […] Following incubation, the fluorescence was measured with a plate reader using excitation at 380 nm and emission at 460 nm.
# [2] = target: Glutaminyl-peptide cyclotransferase (Homo sapiens, UniProt Q16769); test: QPCT Enzymatic Activity Assay
# Glutaminyl-peptide cyclotransferase, sequence (Q16769 whole entry): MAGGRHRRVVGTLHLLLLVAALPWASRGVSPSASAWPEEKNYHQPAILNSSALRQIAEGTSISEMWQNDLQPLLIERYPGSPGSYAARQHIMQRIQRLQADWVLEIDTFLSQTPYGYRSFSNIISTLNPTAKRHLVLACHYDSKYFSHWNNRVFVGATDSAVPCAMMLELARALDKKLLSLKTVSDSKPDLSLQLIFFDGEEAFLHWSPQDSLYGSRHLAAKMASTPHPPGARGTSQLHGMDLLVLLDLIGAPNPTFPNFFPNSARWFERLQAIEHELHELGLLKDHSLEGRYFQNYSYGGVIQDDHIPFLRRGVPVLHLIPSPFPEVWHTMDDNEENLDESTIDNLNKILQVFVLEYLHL
# Experimental: QPCT activity was measured in a coupled-enzyme assay using the QPCT substrate, glutamine-7-amido-4-methylcoumarin (H-Gln-AMC, Bachem), which is converted to pyroglutamyl-AMC by QPCT. Pyroglutamyl-AMC is then converted to the fluorescent molecule, AMC, by incubation with the human enzyme pyroglutamyl peptidase-1 (PGPEP-1). […] Following the incubation, H-Gln-AMC substrate was diluted in assay buffer and added to each well for a final concentration of 10 μM. The reaction was incubated for 60 min at 37° C., before stopping it by boiling at 100° C. for 5 minutes and cooling the plate at 4° C. for 3 minutes. […] Following incubation, the fluorescence was measured with a plate reader using excitation at 380 nm and emission at 460 nm.
# Glutaminyl-peptide cyclotransferase-like protein, sequence (Q9NXS2 whole entry): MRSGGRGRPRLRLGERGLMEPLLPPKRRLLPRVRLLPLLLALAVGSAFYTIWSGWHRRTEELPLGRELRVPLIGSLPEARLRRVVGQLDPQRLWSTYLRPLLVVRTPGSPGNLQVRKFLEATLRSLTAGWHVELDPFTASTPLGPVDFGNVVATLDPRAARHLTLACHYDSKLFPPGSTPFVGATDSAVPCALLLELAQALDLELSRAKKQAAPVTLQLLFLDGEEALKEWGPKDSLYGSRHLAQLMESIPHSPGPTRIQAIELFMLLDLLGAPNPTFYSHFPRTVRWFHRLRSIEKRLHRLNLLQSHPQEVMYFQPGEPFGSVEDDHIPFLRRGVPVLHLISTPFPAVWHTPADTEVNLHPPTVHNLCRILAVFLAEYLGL
compound,measurement,setting,value
"Cn1cncc1C1CCN(c2c(C#N)ccnc2-c2ccc(F)nc2)CC1 [US20240101544, Example 134]",IC50,[1],< 100 nM
same,IC50,[2],< 100 nM
